Measured values as given in ChEMBL document CHEMBL3885881, “DrugMatrix”.

Species: Rattus norvegicus
Experiment: DrugMatrix - Regimen: Daily Repeat
Format: toxicity, organism-based, Sprague-Dawley
Design: regimen Daily Repeat, gender Male, age 6-8 weeks
Settings: in vivo, po, route oral GAVAGE, vehicle .5 % CMC; for ABSOLUTE BASOPHIL / ABSOLUTE EOSINOPHIL / ABSOLUTE LYMPHOCYTE / ABSOLUTE MONOCYTE / ABSOLUTE SEGMENTED NEUTROPHIL / BASOPHIL / EOSINOPHIL / ERYTHROCYTE COUNT / HEMATOCRIT / HEMOGLOBIN / LEUKOCYTE COUNT / LYMPHOCYTE / MEAN CORPUSCULAR HEMOGLOBIN / MEAN CORPUSCULAR HEMOGLOBIN CONCENTRATION / MEAN CORPUSCULAR VOLUME / MONOCYTE / NEUTROPHIL / NUCLEATED RED BLOOD CELLS / PLATELET COUNT: tissue Blood; for ALANINE AMINOTRANSFERASE / ALBUMIN / ALKALINE PHOSPHATASE / ASPARTATE AMINOTRANSFERASE / BLOOD UREA NITROGEN / CARBON DIOXIDE / CHLORIDE / CHOLESTEROL / CREATINE PHOSPHOKINASE / CREATININE / GLUCOSE / LACTATE DEHYDROGENASE / LIPASE / PHOSPHORUS / POTASSIUM / SODIUM / TOTAL BILIRUBIN / TOTAL PROTEIN / URIC ACID: tissue Plasma
[1] = 10 mg/kg, 72 h, dose level Low, time 3 day
[2] = 10 mg/kg, 120 h, dose level Low, time 5 day
[3] = 1500 mg/kg, 72 h, dose level High, time 3 day
[4] = 1500 mg/kg, 120 h, dose level High, time 5 day

## CCOC(=O)[C@H](CCc1ccccc1)N[C@@H](C)C(=O)N1CCC[C@H]1C(=O)O
[1]
  ABSOLUTE BASOPHIL: 0 CELLS/uL
  ABSOLUTE EOSINOPHIL: 88 CELLS/uL
  ABSOLUTE LYMPHOCYTE: 12760.67 CELLS/uL
  ABSOLUTE MONOCYTE: 130 CELLS/uL
  ABSOLUTE SEGMENTED NEUTROPHIL: 688 CELLS/uL
  BASOPHIL: 0%
  EOSINOPHIL: 0.67%
  ERYTHROCYTE COUNT: 5.43 x10E6/uL
  HEMATOCRIT: 32.83%
  HEMOGLOBIN: 13.1 G/DL
  LEUKOCYTE COUNT: 13.67 x10E3/uL
  LYMPHOCYTE: 93.33%
  MEAN CORPUSCULAR HEMOGLOBIN: 24.13 pg
  MEAN CORPUSCULAR HEMOGLOBIN CONCENTRATION: 39.87 G/DL
  MEAN CORPUSCULAR VOLUME: 60.53 fL
  MONOCYTE: 1%
  NEUTROPHIL: 5%
  NUCLEATED RED BLOOD CELLS: 0.33 /100WBC
  PLATELET COUNT: 1331.67 x10E3/uL
  ALANINE AMINOTRANSFERASE: 46 u/L
  ALBUMIN: 4.5 G/DL
  ALKALINE PHOSPHATASE: 398 u/L
  ASPARTATE AMINOTRANSFERASE: 79 u/L
  BLOOD UREA NITROGEN: 17.67 mg/dL
  CARBON DIOXIDE: 28.33 mmol/L
  CHLORIDE: 98 MEQ/L
  CHOLESTEROL: 60.33 mg/dL
  CREATINE PHOSPHOKINASE: 181.67 u/L
  CREATININE: 0.17 mg/dL
  GLUCOSE: 149.33 mg/dL
  LACTATE DEHYDROGENASE: 115.33 u/L
  LIPASE: 9.67 u/L
  PHOSPHORUS: 11.47 mg/dL
  POTASSIUM: 6.99 MEQ/L
  SODIUM: 142.87 MEQ/L
  TOTAL BILIRUBIN: 0.23 mg/dL
  TOTAL PROTEIN: 6.13 G/DL
  URIC ACID: 1.37 mg/dL
[2]
  ABSOLUTE BASOPHIL: 0 CELLS/uL
  ABSOLUTE EOSINOPHIL: 28.33 CELLS/uL
  ABSOLUTE LYMPHOCYTE: 10805 CELLS/uL
  ABSOLUTE MONOCYTE: 28.33 CELLS/uL
  ABSOLUTE SEGMENTED NEUTROPHIL: 738.33 CELLS/uL
  BASOPHIL: 0%
  EOSINOPHIL: 0.33%
  ERYTHROCYTE COUNT: 5.56 x10E6/uL
  HEMATOCRIT: 34.6%
  HEMOGLOBIN: 13.37 G/DL
  LEUKOCYTE COUNT: 11.6 x10E3/uL
  LYMPHOCYTE: 93%
  MEAN CORPUSCULAR HEMOGLOBIN: 24.03 pg
  MEAN CORPUSCULAR HEMOGLOBIN CONCENTRATION: 38.63 G/DL
  MEAN CORPUSCULAR VOLUME: 62.23 fL
  MONOCYTE: 0.33%
  NEUTROPHIL: 6.33%
  NUCLEATED RED BLOOD CELLS: 0 /100WBC
  PLATELET COUNT: 1173.33 x10E3/uL
  ALANINE AMINOTRANSFERASE: 49.33 u/L
  ALBUMIN: 4.27 G/DL
  ALKALINE PHOSPHATASE: 405.67 u/L
  ASPARTATE AMINOTRANSFERASE: 79.33 u/L
  BLOOD UREA NITROGEN: 17.33 mg/dL
  CARBON DIOXIDE: 26.33 mmol/L
  CHLORIDE: 102.33 MEQ/L
  CHOLESTEROL: 51.67 mg/dL
  CREATINE PHOSPHOKINASE: 399 u/L
  CREATININE: 0.17 mg/dL
  GLUCOSE: 175 mg/dL
  LACTATE DEHYDROGENASE: 121.67 u/L
  LIPASE: 9 u/L
  PHOSPHORUS: 11.1 mg/dL
  POTASSIUM: 6.79 MEQ/L
  SODIUM: 142.87 MEQ/L
  TOTAL BILIRUBIN: 0.23 mg/dL
  TOTAL PROTEIN: 6.07 G/DL
  URIC ACID: 1.2 mg/dL
[3]
  ABSOLUTE BASOPHIL: 0 CELLS/uL
  ABSOLUTE EOSINOPHIL: 63.67 CELLS/uL
  ABSOLUTE LYMPHOCYTE: 17047.67 CELLS/uL
  ABSOLUTE MONOCYTE: 127.33 CELLS/uL
  ABSOLUTE SEGMENTED NEUTROPHIL: 1494.67 CELLS/uL
  BASOPHIL: 0%
  EOSINOPHIL: 0.33%
  ERYTHROCYTE COUNT: 5.46 x10E6/uL
  HEMATOCRIT: 34.33%
  HEMOGLOBIN: 13.63 G/DL
  LEUKOCYTE COUNT: 18.73 x10E3/uL
  LYMPHOCYTE: 91%
  MEAN CORPUSCULAR HEMOGLOBIN: 24.93 pg
  MEAN CORPUSCULAR HEMOGLOBIN CONCENTRATION: 39.7 G/DL
  MEAN CORPUSCULAR VOLUME: 62.93 fL
  MONOCYTE: 0.67%
  NEUTROPHIL: 8%
  NUCLEATED RED BLOOD CELLS: 1 /100WBC
  PLATELET COUNT: 1237.33 x10E3/uL
  ALANINE AMINOTRANSFERASE: 41.33 u/L
  ALBUMIN: 4.27 G/DL
  ALKALINE PHOSPHATASE: 390.33 u/L
  ASPARTATE AMINOTRANSFERASE: 57.33 u/L
  BLOOD UREA NITROGEN: 34.67 mg/dL
  CARBON DIOXIDE: 32.33 mmol/L
  CHLORIDE: 101.67 MEQ/L
  CHOLESTEROL: 58.33 mg/dL
  CREATINE PHOSPHOKINASE: 191.33 u/L
  CREATININE: 0.28 mg/dL
  GLUCOSE: 143 mg/dL
  LACTATE DEHYDROGENASE: 90.33 u/L
  LIPASE: 9 u/L
  PHOSPHORUS: 12.8 mg/dL
  POTASSIUM: 8.04 MEQ/L
  SODIUM: 142.4 MEQ/L
  TOTAL BILIRUBIN: 0.27 mg/dL
  TOTAL PROTEIN: 6 G/DL
  URIC ACID: 1.53 mg/dL
[4]
  ABSOLUTE BASOPHIL: 0 CELLS/uL
  ABSOLUTE EOSINOPHIL: 0 CELLS/uL
  ABSOLUTE LYMPHOCYTE: 15341.33 CELLS/uL
  ABSOLUTE MONOCYTE: 266 CELLS/uL
  ABSOLUTE SEGMENTED NEUTROPHIL: 992.67 CELLS/uL
  BASOPHIL: 0%
  EOSINOPHIL: 0%
  ERYTHROCYTE COUNT: 6.24 x10E6/uL
  HEMATOCRIT: 36.97%
  HEMOGLOBIN: 15.13 G/DL
  LEUKOCYTE COUNT: 16.6 x10E3/uL
  LYMPHOCYTE: 92.33%
  MEAN CORPUSCULAR HEMOGLOBIN: 24.23 pg
  MEAN CORPUSCULAR HEMOGLOBIN CONCENTRATION: 40.93 G/DL
  MEAN CORPUSCULAR VOLUME: 59.27 fL
  MONOCYTE: 1.67%
  NEUTROPHIL: 6%
  NUCLEATED RED BLOOD CELLS: 0.33 /100WBC
  PLATELET COUNT: 1399.33 x10E3/uL
  ALANINE AMINOTRANSFERASE: 39.33 u/L
  ALBUMIN: 4.47 G/DL
  ALKALINE PHOSPHATASE: 328.67 u/L
  ASPARTATE AMINOTRANSFERASE: 73 u/L
  BLOOD UREA NITROGEN: 41 mg/dL
  CARBON DIOXIDE: 25.33 mmol/L
  CHLORIDE: 101.67 MEQ/L
  CHOLESTEROL: 48.67 mg/dL
  CREATINE PHOSPHOKINASE: 295.67 u/L
  CREATININE: 0.37 mg/dL
  GLUCOSE: 149 mg/dL
  LACTATE DEHYDROGENASE: 268.33 u/L
  LIPASE: 9 u/L
  PHOSPHORUS: 10.67 mg/dL
  POTASSIUM: 9.54 MEQ/L
  SODIUM: 140.13 MEQ/L
  TOTAL BILIRUBIN: 0.13 mg/dL
  URIC ACID: 1.4 mg/dL
